Data published in patent publication US20200390889A1, “REMOTELY TRIGGERED THERAPY” (Bambu Vault LLC, priority 2019, published 2020).

Legend:
[1] = likelihood of association with drug induced liver injury, based upon the known potential of the drug; cited from earlier work
[2] = Percentage of curcumin and Epolight IR 1117 loading / encapsulation determination; type: physicochemical; conditions: in B-805 PMMA/BMA particles made by Example 13(b)
Method: The UV-VIS-NIR absorbance spectrum of the IR absorbing agent and/or the drug is measured using Shimadzu UV-3600 UV-VIS-NIR Spectrophotometer. The concentration of the IR absorbing agent in the particles is determined from application of Beer's law.

[3] = Leaching (stability) test, protective effect of VTMS shell; type: physicochemical; conditions: post-coating vs pre-coating B-805 particles; 1% SDS in water, sonicated 90 minutes
Method: Prior to the test, particles were dispersed in water for storage at varying concentrations. Amounts of fluid containing 50 mg of particles—a sample of pre-coating particles and a sample of post-coating particles—were weighed into 15 mL conical centrifuge tubes. The tubes were centrifuged to sediment the particles and supernatant was removed. 3 mL of 1% SDS in water was added to each tube, which were then vortexed to resuspend particles. The tubes containing the particles suspended in SDS solution were placed into a sonicated water bath for 90 minutes. The tubes were then removed and centrifuged to sediment the particles again. The supernatant was retained and filtered through a 0.2 μm syringe filter to remove any remaining particles. Absorption spectra of the supernatants was then measured on a Shimadzu 3600 UV/Vis/NIR spectrophotometer from 400-1300 nm. Molarity of colored components in the solutions and the percentage decrease of absorption between post-coating and pre-coating particles was calculated from the spectra.

[4] = Laser triggered drug release from particles in gelatin; type: physicochemical; conditions: PMMA beads with 25% VTMS shells in gelatin; Q-switched Lutronic laser 1064 nm, 2.46-5.09 J/cm^2
Method: Procedure: A solution of gelatin was prepared by adding Knox gelatin (1.0 g) to cold water (12.5 g) in a 100 mL glass jar equipped with a magnetic stir bar. The gelatin was stirred 15-30 minutes and then hot water was added (70° C.) until the total weight was 50.0 g. This gelatin was then used in 2.0 gm aliquots. Drug loaded PMMA beads with 25% VTMS shells as prepared in Example 1b above (20-30 mg) were then added to the gelatin solution (2.0 g) and vortexed mixed in a 4 dram vial. The suspension of the tattoo particles in gelatin was then sonicated for 15-30 minutes before transferring to a 5 cm plastic culture dish. The gelatin suspension was spread evenly and allowed to set. It was then covered and placed in a refrigerator a 6° C. until ready for laser exposure.
Laser exposure was accomplished as follows: The cover for the culture dish was removed and a 5 cm clear plastic cover was cut and fit over the gelatin to prevent splatter. The top surface was then completely lasered at 1064 nm with a 5 mm spot using fluences ranging from 2.46 J/cm^2 to 5.09 J/cm^2 using Q-switched Lutronic laser.
After lasering the top surface the culture dish was covered with its lid, turned over and lasered from the opposite side to reach any unexposed beads visible only from the bottom side.
The standard fluence for tattoo removal is 3.51 J/cm^2. […]

[5] = tested on: T47D; conditions: ER+ breast cancer cells, Hu et al. 2018; cited from earlier work
[6] = tested on: MCF7; conditions: MCF7, ER+ breast cancer cells; Hu et al. 2018; cited from earlier work
[7] = tested on: MDA-MB-415; conditions: MDA-MB-415, ER+ breast cancer cells; Hu et al. 2018; cited from earlier work
[8] = tested on: MDA-MB-231; conditions: MDA-MB-231, ER-PR-HER2- cells; Hu et al. 2018; cited from earlier work
[9] = tested on: MDA-MD-468; conditions: MDA-MD-468, ER-PR-HER2- cells; Hu et al. 2018; cited from earlier work
[10] = tested on: BT-20; conditions: BT-20, ER-PR-HER2- cells; Hu et al. 2018; cited from earlier work
[11] = Screening of acrylic polymers and additives for IR absorbing agent stability and retention; type: physicochemical; conditions: additive within the particles
Method: Various commercially available acrylic polymers were screened for preferred particle performance characteristic such as particle size distribution, IR absorbing agent stability and encapsulation efficiency. […] NeoCryl® B-818, an ethyl acrylate/ethyl methacrylate copolymer, contained a lower hydroxyl value, but was still swellable in low molecular weight alcohols. NeoCryl® B-805, a methyl methacrylate/butyl methacrylate copolymer, had suitably a low hydroxyl value and a high Tg (99° C.) for human body applications.
The loading of IR absorbing agents within the particles is as high as possible without degrading the cohesion of the polymer. The additives that stabilize the IR absorbing agent within the particles have been studied.

[12] = Retention of tetrakis aminium dye during emulsification with different surfactants; type: physicochemical; conditions: for retention of Epolight 1117 in the particles: during the emulsion and evaporation process
Method: IR absorbing agent weight ratio=4.4:1). The organic phase (polymer and IR absorbing agents dissolved in dichloromethane) was injected directly into the aqueous phase (PVA solution with SDS surfactant) at the tip of the Turrax's roto-stator (i.e. directly into the flow being sheared by the roto-stator). The shear mixing at 8000 RPM was continued for 30 minutes. The resulting mixture was decanted into an open-mouth container and stirred magnetically for 16 hours. A solid suspension of particles containing IR absorbing agent was obtained. The solid suspension was centrifuged at 5000 RPM for 30 minutes and the particles were collected. The collected particles were washed with distilled water by resuspending the particles into distilled water and centrifuging as before to collect the particles. This washing process was repeated three times to remove residual PVA. The resulting MMA/IA/BMA copolymer particles containing IR absorbing agent were air-dried. In the emulsion method of encapsulation, a surfactant is necessary to help keep the emulsion stable. While Aerosol® TR-70 (sodium bis(tridecyl) sulfosuccinate) could be used as an emulsifier to prepare polymer particles encapsulating Epolight™ 1117 tetrakis aminium dye, TR-70 only provided limited stabilization effects on the tetrakis aminium dye. […] Reducing the amount of SDS in the aqueous phase led to lower Epolight™ 1117 retention and larger particle size (Table 5).

[13] = 0.6% surfactant in aqueous phase during emulsification

Compound	Likelihood Score [1]	further results
CC(C)C[C@H](NC(=O)CNC(=O)c1cc(Cl)ccc1Cl)B(O)O [Ixazomib]	E*	
N#CC[C@H](C1CCCC1)n1cc(-c2ncnc3[nH]ccc23)cn1 [Ruxolitinib]	E*	
Cn1ncnc1[C@H]1c2n[nH]c(=O)c3cc(F)cc(c23)N[C@@H]1c1ccc(F)cc1 [Talazoparib]	E*	
O=C(Nc1cnn2ccc(N3CCC[C@@H]3c3cc(F)ccc3F)nc12)N1CC[C@H](O)C1 [Larotrectinib]	E*	
COc1cc(/C=C/C(=O)CC(=O)/C=C/c2ccc(O)c(OC)c2)ccc1O [Curcumin, curcumin]		measured encapsulation [2]: 78%; reduction of leaching by VTMS shell [3]: 70%; curcumin released from the particles [4]: about 3 wt. %; IC50 [5]: 2.07 ± 0.08 µM; IC50 [6]: 1.32 ± 0.06 µM; IC50 [7]: 4.69 ± 0.06 µM; IC50 [8]: 11.3 ± 2.13 µM; IC50 [9]: 18.6 ± 3.12 µM; IC50 [10]: 16.2 ± 2.16 µM
CCCS(=O)(=O)Nc1ccc(F)c(C(=O)c2c[nH]c3ncc(-c4ccc(Cl)cc4)cc23)c1F [Vemurafenib]	E*	
COC(=O)N[C@@H](C)CNc1nccc(-c2cn(C(C)C)nc2-c2cc(Cl)cc(NS(C)(=O)=O)c2F)n1 [Encorafenib]	E*	
COc1cc2c(Nc3ccc(Br)cc3F)ncnc2cc1OCC1CCN(C)CC1 [Vandetanib]	E*	
NC(=O)c1cccc2cn(-c3ccc([C@@H]4CCCNC4)cc3)nc12 [Niraparib]	E*	
Cc1ccc(C(=O)Nc2ccc(CN3CCN(C)CC3)c(C(F)(F)F)c2)cc1C#Cc1cnc2cccnn12 [Ponatinib]	E*	
Cc1cc(C(C)(C)C)c(O)c(C)c1Cn1c(=O)n(Cc2c(C)cc(C(C)(C)C)c(O)c2C)c(=O)n(Cc2c(C)cc(C(C)(C)C)c(O)c2C)c1=O [Cyanox® 1790, 1,3,5-tris(4-tert-butyl-3-hydroxy-2,6-dimethylbenzyl)-1,3,5-triazine-2,4,6-(1H,3H,5H)-trione]		impact on IR absorbing agent stability [11]: positive impact
COC(=O)c1ccc2c(c1)NC(=O)/C2=C(\Nc1ccc(N(C)C(=O)CN2CCN(C)CC2)cc1)c1ccccc1 [Nintedanib]	E*	
CNCc1ccc(-c2[nH]c3cc(F)cc4c3c2CCNC4=O)cc1 [Rucaparib]	D*	
CCOc1cc2ncc(C#N)c(Nc3ccc(OCc4ccccn4)c(Cl)c3)c2cc1NC(=O)/C=C/CN(C)C [Neratinib]	E*	
COc1cc(Nc2c(C#N)cnc3cc(OCCCN4CCN(C)CC4)c(OC)cc23)c(Cl)cc1Cl [Bosutinib]	E*	
CC(C)(O)CNc1nc(Nc2ccnc(C(F)(F)F)c2)nc(-c2cccc(C(F)(F)F)n2)n1 [Enasidenib]	E*	
COc1cc(N2CCC(N3CCN(C)CC3)CC2)ccc1Nc1ncc(Cl)c(Nc2ccccc2P(C)(C)=O)n1 [Brigatinib]	E*	
Cc1c(C(=O)Nc2ccc(N3C[C@@H](C)O[C@@H](C)C3)nc2)cccc1-c1ccc(OC(F)(F)F)cc1 [Sonidegib]	E*	

Compound	Likelihood Score [1]	further results
C[C@H]1Oc2cc(cnc2N)-c2c(nn(C)c2C#N)CN(C)C(=O)c2ccc(F)cc21 [Lorlatinib]	E*	
N#Cc1ccnc(N2C(=O)CC[C@H]2C(=O)N(c2cncc(F)c2)[C@H](C(=O)NC2CC(F)(F)C2)c2ccccc2Cl)c1 [Ivosidenib]	E*	
COc1c(OCCCN2CCOCC2)ccc2c1N=C(NC(=O)c1cnc(N)nc1)N1CCN=C21 [Copanlisib]	E*	
COc1cc2ncnc(Nc3ccc(F)c(Cl)c3)c2cc1NC(=O)/C=C/CN1CCCCC1 [Dacomitinib]	E*	
CO[C@@H]1[C@H](N(C)C(=O)c2ccccc2)C[C@H]2O[C@]1(C)n1c3ccccc3c3c4c(c5c6ccccc6n2c5c31)C(=O)NC4 [Midostaurin]	E*	
Cn1cnc2c(F)c(Nc3ccc(Br)cc3F)c(C(=O)NOCCO)cc21 [Binimetinib]	E*	
C[C@H](Nc1ncnc2[nH]cnc12)c1cc2cccc(Cl)c2c(=O)n1-c1ccccc1 [Duvelisib]	E*	
COc1cc(Nc2ncc(F)c(Nc3ccc4c(n3)N(COP(=O)(O)O)C(=O)C(C)(C)O4)n2)cc(OC)c1OC [Fostamatinib]	E*	
CC(C)(C)c1nc(-c2cccc(NS(=O)(=O)c3c(F)cccc3F)c2F)c(-c2ccnc(N)n2)s1 [Dabrafenib]	E*	
CN1CC[C@@H](NC(=O)Nc2ccc(C#N)cc2)C[C@@H]1c1nc2ccccc2[nH]1 [Glasdegib]	E*	
CCCCCCCCCCCCCOC(=O)CC(C(=O)OCCCCCCCCCCCCC)S(=O)(=O)O.[Na] (centres unmarked) [TR-70, sodium bis(tridecyl) sulfosuccinate]		% Epolight 1117 Retention [12, 13]: 51.70%; retention of Epolight 1117 in the particles [12]: 50%
CC(=O)c1c(C)c2cnc(Nc3ccc(N4CCNCC4)cn3)nc2n(C2CCCC2)c1=O [Palbociclib]	E*	
CCN1CCN(Cc2ccc(Nc3ncc(F)c(-c4cc(F)c5nc(C)n(C(C)C)c5c4)n3)nc2)CC1 [Abemaciclib]	E*	
COc1cc2nccc(Oc3ccc(NC(=O)C4(C(=O)Nc5ccc(F)cc5)CC4)cc3)c2cc1OC [Cabozantinib]	E*	
CCCCCCCCCCCCOS(=O)(=O)[O-].[Na+] [SDS, sodium dodecyl sulfate]		% Epolight 1117 Retention ([12]; 0.2% surfactant in aqueous phase during emulsification): 74.97%; % Epolight 1117 Retention ([12]; 0.4% surfactant in aqueous phase during emulsification): 80.17%; % Epolight 1117 Retention [12, 13]: 82.96%; retention of Epolight 1117 in the particles [12]: 85-90%
CCc1nc(C(N)=O)c(Nc2ccc(N3CCC(N4CCN(C)CC4)CC3)c(OC)c2)nc1NC1CCOCC1 [Gilteritinib]	E*	
CCS(=O)(=O)N1CC(CC#N)(n2cc(-c3ncnc4[nH]ccc34)cn2)C1 [Baricitinib]	E*	
